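Growth conditions: 96-well plates. Treatment: test compound, 48 hours, 5 concentrations. Analysis: linear interpolation between bracketing concentrations; unreached endpoints set to highest concentration. At the GI50, growth is halved.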 Active and inactive are the calls of the source. No stated cut-off is given here; in the data, active = GI50 up to about 1.1 µM and inactive = higher.

Among the test systems are SR; CAKI-1; A498; SNB-75; SW-620; MDA-MB-231; SN12C; Hs-578T; CCRF-CEM; HCT-116; NCI-H23; ACHN; 786-0; U-251; LOX IMVI; OVCAR-5; PC-3; MOLT-4; EKVX; NCI-H460.
Holding throughout (experiment): NCI-60 cell line screen, 48 h

In the case of `O=C(NCCSSCCNC(=O)/C(Cc1ccc(O)c(Br)c1)=N/O)/C(Cc1ccc(O)c(Br)c1)=N/O` [PSAMMAPLIN A], the GI50 in the test on SR is 0.38 µM (active); with CAKI-1 it was 1.47 µM (inactive); in the test with A498 it was 2.9 µM (inactive); in the test with SNB-75, 0.889 µM (active); in the test with SW-620 it was 1.64 µM (inactive); in the test on MDA-MB-231 it was 1.78 µM (inactive). Moreover, the GI50 in the test on SN12C was 1.43 µM (inactive); with Hs-578T it was 1.77 µM (inactive); in the test with CCRF-CEM it was 0.377 µM (active); in the test with HCT-116, 1.39 µM (inactive); with NCI-H23 it was 3.2 µM (inactive); in the test on ACHN, 1.62 µM (inactive). The GI50 is 2.07 µM (inactive) in the test on 786-0; 1.1 µM (active) in the test with U-251; 1.3 µM (inactive) in the test on LOX IMVI; 2.21 µM (inactive) in the test on OVCAR-5; 1.61 µM (inactive) in the test on PC-3; 0.402 µM (active) in the test on MOLT-4. Also, the GI50 with EKVX is 4.49 µM (inactive); with NCI-H460, 0.902 µM (active).

On to `[O-]c1c[n+](-c2ccccc2)no1`, for which the GI50 in the test with SR, in the test with CAKI-1, in the test on A498, with SNB-75, in the test with SW-620 and in the test on MDA-MB-231 was > 100 µM (inactive) each time. Also, the GI50 in the test on SN12C, in the test with Hs-578T, in the test on CCRF-CEM, in the test on HCT-116, in the test with NCI-H23 and in the test on ACHN was > 100 µM (inactive) in each case. For the same compound, the GI50 in the test with 786-0, with U-251, in the test on LOX IMVI, in the test on OVCAR-5, with PC-3 and in the test with EKVX was > 100 µM (inactive) throughout. The GI50 in the test on NCI-H460 is > 100 µM (inactive).

Take `N#Cc1nc(C2SCCCS2)oc1N`: the GI50 in the test with SR is > 100 µM (inactive); in the test on CAKI-1, > 100 µM (inactive); in the test on A498 it was > 100 µM (inactive); with SNB-75, < 0.01 µM (active); in the test on SW-620, > 100 µM (inactive); with MDA-MB-231, > 100 µM (inactive). The GI50 with SN12C was > 100 µM (inactive); with Hs-578T, 43 µM (inactive); with CCRF-CEM, 64.3 µM (inactive); in the test on HCT-116 it was > 100 µM (inactive); in the test with ACHN it was > 100 µM (inactive); in the test with 786-0, > 100 µM (inactive). The GI50 in the test with U-251, in the test with LOX IMVI, in the test with OVCAR-5, in the test with PC-3, in the test with MOLT-4 and in the test with EKVX was > 100 µM (inactive) each time.

On to `Cc1cc(N(CCC#N)CCC#N)ccc1C(=N/NC(=O)c1cc(Cl)ccc1O)/N=N/c1cccc(Cl)c1`, for which the GI50 with SR was 6.04 µM (inactive); in the test on CAKI-1, 17.9 µM (inactive); in the test on A498, 28.4 µM (inactive); with SNB-75, 13.5 µM (inactive); in the test on SW-620, 17.8 µM (inactive); in the test on MDA-MB-231, 15.7 µM (inactive). Also, the GI50 is 19.1 µM (inactive) in the test with SN12C; 39.1 µM (inactive) with Hs-578T; 4.41 µM (inactive) with CCRF-CEM; 12.2 µM (inactive) with HCT-116; 13.7 µM (inactive) in the test on NCI-H23; 13 µM (inactive) with ACHN. Further, the GI50 is 11.5 µM (inactive) in the test with 786-0; 25.2 µM (inactive) in the test with U-251; 11.4 µM (inactive) with LOX IMVI; 41.6 µM (inactive) in the test on OVCAR-5; 10.1 µM (inactive) with PC-3; 4.81 µM (inactive) in the test with MOLT-4. Further, the GI50 in the test with EKVX is 14.4 µM (inactive); in the test with NCI-H460, 6.27 µM (inactive).

In the case of `CC(C(=O)O)C1Nc2ccccc2NC1=O` (centres undefined), the GI50 was 65.6 µM (inactive) in the test with SR; > 100 µM (inactive) with CAKI-1; > 100 µM (inactive) with A498; > 100 µM (inactive) in the test on SNB-75; > 100 µM (inactive) with SW-620; > 100 µM (inactive) with MDA-MB-231. Moreover, the GI50 in the test on Hs-578T is > 100 µM (inactive); in the test with CCRF-CEM, 14.2 µM (inactive); with HCT-116 it was > 100 µM (inactive); in the test with NCI-H23, > 100 µM (inactive); with ACHN, > 100 µM (inactive); in the test on 786-0 it was > 100 µM (inactive). Further, the GI50 in the test with U-251 is > 100 µM (inactive); in the test on LOX IMVI, > 100 µM (inactive); in the test on OVCAR-5 it was > 100 µM (inactive); with PC-3 it was > 100 µM (inactive); in the test on MOLT-4, 25.2 µM (inactive); in the test with EKVX, > 100 µM (inactive). In the test with NCI-H460, the GI50 is > 100 µM (inactive).

For `CC[C@@H]1/C=C/C=C/C[C@H](C)[C@@H](O)[C@@H](C)C(=O)[C@H](C)[C@@H](O)[C@H](C)C(=O)[C@H](C)[C@@H](O)[C@H](C)/C=C/C(=O)O[C@H]2[C@@H](C)[C@@H](CC1)O[C@@]1(CC[C@@H](C)[C@@H](CC(C)O)O1)[C@@H]2C` (some centres undefined), the GI50 in the test on SR is 3.01 µM (inactive); in the test on CAKI-1, 4.15 µM (inactive); with A498, 0.0989 µM (active); in the test on SNB-75, 0.253 µM (active); in the test with SW-620 it was 5.32 µM (inactive); with MDA-MB-231, 4.35 µM (inactive). Moreover, the GI50 with SN12C was 1.94 µM (inactive); with Hs-578T, 6.03 µM (inactive); in the test on CCRF-CEM, 1.75 µM (inactive); with HCT-116, 2.58 µM (inactive); with NCI-H23, 0.00361 µM (active); in the test with ACHN, 0.17 µM (active). Also, the GI50 is 5.9 µM (inactive) in the test on 786-0; 0.00361 µM (active) in the test on U-251; 5.83 µM (inactive) in the test on LOX IMVI; 3.63 µM (inactive) in the test with OVCAR-5; 0.00678 µM (active) in the test with PC-3; 0.815 µM (active) with MOLT-4. Further, the GI50 in the test with EKVX is < 0.0025 µM (active); with NCI-H460, 2.17 µM (inactive).

In the case of `O=NN(CCCl)C(=O)NC1CCC(=O)NC1=O` (centres undefined), the GI50 with SR is 25.4 µM (inactive); in the test on CAKI-1, 270 µM (inactive); in the test on A498, 174 µM (inactive); in the test with SNB-75, 60.5 µM (inactive); with SW-620 it was 67.8 µM (inactive); with MDA-MB-231 it was 286 µM (inactive). In addition, the GI50 in the test on SN12C is 243 µM (inactive); in the test with Hs-578T, 348 µM (inactive); with CCRF-CEM, 75.5 µM (inactive); in the test with HCT-116, 215 µM (inactive); in the test with NCI-H23, 277 µM (inactive); with ACHN it was 428 µM (inactive). Also, the GI50 with 786-0 is 61.7 µM (inactive); in the test on U-251 it was 52.8 µM (inactive); in the test on LOX IMVI, 48.2 µM (inactive); in the test with OVCAR-5, 804 µM (inactive); in the test with PC-3 it was 745 µM (inactive); in the test on MOLT-4, 49.2 µM (inactive). The GI50 with EKVX was 415 µM (inactive); in the test with NCI-H460, 83.8 µM (inactive).

Turning to `Cc1nc2ccc(Cl)cc2c2c1CCN2c1ccccc1`, the GI50 is 14.3 µM (inactive) with SR; 11.5 µM (inactive) in the test with CAKI-1; 14.8 µM (inactive) with A498; 23.7 µM (inactive) with SNB-75; 18.6 µM (inactive) in the test with SW-620; 2.3 µM (inactive) in the test on MDA-MB-231. Further, the GI50 with SN12C is 0.975 µM (active); in the test with Hs-578T it was 21 µM (inactive); in the test on CCRF-CEM, 5.62 µM (inactive); with HCT-116, 3.61 µM (inactive); in the test on NCI-H23, 14.1 µM (inactive); with ACHN, 16.9 µM (inactive). The GI50 with 786-0 was 10.4 µM (inactive); in the test with U-251, 16.4 µM (inactive); with LOX IMVI, 10.3 µM (inactive); with PC-3, 10.6 µM (inactive); with MOLT-4 it was 7.03 µM (inactive); in the test on EKVX it was 21.2 µM (inactive). Besides, the GI50 in the test with NCI-H460 is 7.74 µM (inactive).

For `CC(=O)Oc1ccc(C2SCc3nc4ccccc4n32)cc1` (centres undefined), the GI50 in the test with SR was 15.6 µM (inactive); with CAKI-1, 24.4 µM (inactive); in the test on A498, 27.2 µM (inactive); with SNB-75 it was 19.9 µM (inactive); in the test with SW-620, 35.8 µM (inactive); in the test with MDA-MB-231, 27.4 µM (inactive). Further, the GI50 with SN12C was 49.8 µM (inactive); in the test on Hs-578T, 32.5 µM (inactive); in the test on CCRF-CEM it was 26.5 µM (inactive); with HCT-116, 23.3 µM (inactive); in the test with NCI-H23, 16.3 µM (inactive); in the test with ACHN it was 30.8 µM (inactive). Besides, the GI50 is 39.4 µM (inactive) in the test with 786-0; 25.6 µM (inactive) with U-251; 29.6 µM (inactive) in the test on LOX IMVI; 69.5 µM (inactive) in the test on OVCAR-5; 24.2 µM (inactive) with PC-3; 16.1 µM (inactive) in the test on MOLT-4. Also, the GI50 in the test with EKVX was 26.9 µM (inactive); with NCI-H460, 41.1 µM (inactive).

Consider `O=C(O)C1C2C=CC(O2)C1C(=O)Nc1ccccc1` (centres undefined), for which the GI50 in the test on SR, in the test with CAKI-1, with A498, in the test on SNB-75, with SW-620 and in the test with MDA-MB-231 was > 100 µM (inactive) each time. Moreover, the GI50 with SN12C, with Hs-578T, in the test on CCRF-CEM, with HCT-116, in the test with NCI-H23 and in the test with ACHN was > 100 µM (inactive) throughout. The GI50 in the test with 786-0, in the test on U-251, with LOX IMVI, in the test on OVCAR-5, in the test on PC-3 and in the test on MOLT-4 was > 100 µM (inactive) throughout. Moreover, the GI50 with EKVX was > 100 µM (inactive).

(Values after ChEMBL document CHEMBL1201862, “PubChem BioAssay data set” (2004).)
